# Test results as given in patent US10793589B2, “Resorcinarene-based amphipathic compound and use thereof” (Industry-University Cooperation Foundation Hanyang …, priority 2016, dated 2020).
# Entries after “also recorded” stand apart in the source; their conditions may differ. Where two headings read alike, the source gives them in different places.
# Tests used:
# [1] = Critical micelle concentration by fluorescence dye diphenylhexatriene (DPH); type: physicochemical
# Protocol: A method of measuring the CMC is not particularly limited and may be any method generally known in the art. For example, the CMC may be measured according to a fluorescence staining method using diphenylhexatriene (DPH).
# (§1) Specifically, critical micelle concentrations (CMCs) were measured using a fluorescence dye, diphenylhexatriene (DPH), and hydrodynamic radii (Rh) of micelles formed of each compound (1.0 wt %) were measured by a dynamic light scattering (DLS) experiment. Measured results are shown in Table 1 in comparison with values of DDM as an existing amphipathic molecule (detergent).
# [2] = Hydrodynamic radius and size distribution of micelles by dynamic light scattering (DLS); type: physicochemical; conditions: compound 1.0 wt %
# Protocol: A method of measuring the radius of a micelle is not particularly limited and may be any method generally known in the art. For example, the radius may be measured by a dynamic light scattering (DLS) experiment.
# as §1
# Meanwhile, size distributions of the micelles formed by RGAs and RMAs were measured using DLS.
# [3] = system: leucine transporter (LeuT); experiment: LeuT structural stability, [3H]-Leu binding by scintillation proximity assay (SPA); type: biochemical, Aquifex aeolicus; conditions: CMC+0.04 wt % versus CMC+0.2 wt %
# Protocol: (§2) FIGS. 7A and 7B are a set of graphs illustrating a result of measuring the structural stability of a leucine transporter (LeuT) solubilized in RGAs or DDM evaluated at CMC+0.04 wt % (a) or CMC+0.2 wt % (b). Protein stability was determined by measuring the ability of the transporter to bind a radiolabeled ligand ([3H]-Leu) via scintillation proximity assay (SPA). The substrate binding ability of LeuT was measured at regular intervals during 10 days of incubation of the protein at room temperature in the presence of individual amphipathic compounds.
# as §2, with “8A” for “7A”, “8B” for “7B”, “RMAs” for “RGAs”
# An experiment was carried out to measure the structural stability of a leucine transporter (LeuT) caused by RGAs and RMAs. The concentrations of individual amphipathic compounds were (a) CMC+0.04 wt % or (b) CMC+0.2 wt %, and the substrate binding characteristic of LeuT was measured by scintillation proximity assay (SPA) using [^3H]-Leu. […]
# Specifically, wild type LeuT derived from Aquifex aeolicus which is a thermophilic bacterium was purified according to the method described in the paper (Nature 1998, 392, 353-358) written by G. Deckert et al. LeuT was expressed in E. coli C41 (DE3) transformed with pET16b encoding a C-terminal 8×His-tagged transporter (an expression plasmid was provided by Dr. E. Gouaux (Vollum Institute, Portland, Oreg., USA)). […] The protein samples were stored at room temperature for 10 days and centrifuged at designated time points, and protein characteristics were determined by measuring the binding capacity of [^3H]-Leucine using SPA. […]
# [4] = molecular target: T1, Salmonella typhimurium melibiose permease (MelB) (Salmonella typhimurium, UniProt P30878); experiment: MelB extraction and solubility after 90 min incubation, SDS-PAGE and western blotting; type: biochemical; conditions: 1.5 wt %
# T1 construct: made in house; host or cells: E. coli DW2 (melB and lacZY deleted), plasmid pK95AHB/WT MelBSt/CH10
# Protocol: FIGS. 9A and 9B illustrate a result of measuring the amount of a MelB protein dissolved in an aqueous solution after a MelB protein was extracted at four temperatures (0, 45, 55, and 65) using RGAs or DDM at a concentration of 1.5 wt % and then incubated at the same temperatures for 90 minutes:
# RGAs were selected, and an experiment was carried out to measure the structural stability of a Salmonella typhimurium melibiose permease (MelB) caused by RGAs. A MelB protein was extracted from a membrane using RGAs or DDM, and the amount and structure of the protein thus extracted was then analyzed by performing SDS-PAGE and western blotting. In this case, the concentration of the used amphipathic compound was 1.5 wt %. The protein was extracted at four temperatures (0, 45, 55, and 65° C.) and then incubated at the same temperatures for 90 minutes. Subsequently, two kinds of performance of the compound, that is, protein extraction efficiency and protein stability were evaluated at the same time by measuring the amount of a protein which remained dissolved in an aqueous solution. The amount of a protein which was extracted and stabilized by an individual amphipathic molecule was expressed as a relative value (%) with respect to the amount of the entire protein included in a membrane sample not treated with an amphipathic molecule.
# Specifically, a C-terminal 10-His-tagged Salmonella typhimurium melibiose permease (MelBSt) was expressed in E. coli DW2 cells (melB and lacZY) using plasmid pK95AHB/WT MelBSt/CH10. Cells were grown and membranes were prepared according to the method described in a paper (Nat. Commun. 2014, 5, 3009) written by A. S. Ethayathulla et al. A protein assay was carried out with a Micro BCA kit (Thermo Scientific, Rockford, Ill.). RGAs and DDM were evaluated to measure the stability of MelBSt according to the protocol described in a paper (Nat. Methods 2010, 7, 1003-1008) written by P. S. Chae et al. The membrane sample (final protein concentration of 10 mg/mL) containing MelBSt was incubated in a solubilization buffer containing 1.5% (w/v) DDM or RGAs (20 mM sodium phosphate, pH 7.5, 200 mM NaCl, 10% glycerol, and 20 mM melibiose) at four temperatures (0, 45, 55, and 65° C.) for 90 minutes. An insoluble material was removed by ultracentrifugation at 355,590 g at 4° C. for 45 minutes using a Beckman Optima™ MAX ultracentrifuge equipped with a TLA-100 rotor. A dissolved portion was separated by SDS-16% PAGE, and immunoblotting was then performed using a Penta-His-HRP antibody (Qiagen, Germantown, Md.). A membrane fraction containing 20 μg of protein without treatment was used to illustrate the overall MelB, and the treated samples were loaded into each well in equal volume. MelBSt was measured using the SuperSignal West Pico Chemiluminescent substrate by ImageQuant LAS 4000 Biomolecular Imager (GE Healthcare Life Sciences).
# [5] = molecular target: T2, human β2 adrenergic receptor (β2AR) (Homo sapiens, UniProt P07550); experiment: β2AR stability, [3H]-dihydroalprenolol (DHA) ligand binding assay; type: biochemical
# T2 construct: made in house
# Protocol: (§3) FIGS. 10A and 10B illustrate a result of measuring the effect of RGAs on the stability of β2AR after (a) 0 hour and (b) over time. Protein-ligand binding characteristics were measured via ligand binding assay using [^3H]-dihydroalprenolol (DHA), and the measurement was carried out by sampling a protein sample at regular intervals during 2 days of storage at room temperature.
# as §3, with “12A” for “10A”, “12B” for “10B”, “RMAs” for “RGAs”
# An experiment was carried out to measure the structural stability of a human (32 adrenergic receptor (β2AR) and a G protein-coupled receptor (GPCR) caused by RGAs and RMAs. That is, a receptor purified with DDM was diluted with a buffer solution containing only each RGA and RMA without cholesteryl hemisuccinate (CHS) or a buffer solution containing CHS and DDM. The final concentration of the compound was CMC+0.2 wt %, and the ligand binding characteristic of the receptor was measured using [^3H]-dihydroalprenolol ([^3H]-DHA) binding.
# Specifically, radioligand binding assay was carried out using the following method. β2AR was purified using 0.1% DDM according to the method described in a paper (Science, 2007, 318, 1266-1273.) written by D. M. Rosenbaum et al. and finally concentrated to about 10 mg/ml (about 200 μM). The β2AR purified with DDM was used to prepare a master binding mixture containing 10 nM [^3H]-dihydroalprenolol (DHA) supplemented with 0.5 mg/ml BSA in a 0.2% amphipathic compound (DDM, RGAs or RMAs). The receptor purified with DDM, RGAs or RMAs was incubated with 10 nM [^3H]-DHA at room temperature for 30 minutes. The mixture was loaded into a G-50 column, the flow-through was collected with 1 ml of a binding buffer (20 mM HEPES pH 7.5, 100 mM NaCl, supplemented with 0.5 mg/ml BSA and 20×CMC individual amphipathic compound, and the G-50 column was further filled with 15 ml of a scintillation fluid. Receptor-bound [^3H]-DHA was measured with a scintillation counter (Beckman). The binding capacity of [^3H]-DHA was measured and shown in a column graph. Each experiment was performed in triplicate.
# [6] = molecular target: T2, human β2 adrenergic receptor (β2AR); experiment: Size exclusion chromatography (SEC) of β2AR receptor-detergent complex; conditions: 20×CMC detergent
# Protocol: FIG. 11 illustrates a result of evaluating the size characteristic of a (32AR protein-ligand binding complex formed of RGA-C11, RGA-C13, or DDM via a size exclusion chromatography (SEC) test.
# In addition, a size exclusion chromatography (SEC) test was conducted. Specifically, β2AR purified with 0.1% DDM was loaded on a M1 Flag column in the presence of 2 mM CaCl2, and the column was washed with a DDM, RGA-C11 or RGA-C13 detergent buffer (20 mM HEPES pH 7.5, 100 mM NaCl, 0.2% individual amphipathic compound). The receptor was eluted with 20×CMC DDM, RGA-C11, or RGA-C13 with 5 mM EDTA and 0.2 mg/ml free Flag peptide. The eluate was further added to a Superdex-200 10/300 GL column (GE Healthcare) at 0.5 ml/min, and UV absorbance at 280 nm was recorded. The running buffer contained 20 mM HEPES pH 7.5, 100 mM NaCl, 20×CMC individual detergent (DDM, RGA-C11 and RGA-C13).
# T1 sequence (P30878 whole entry): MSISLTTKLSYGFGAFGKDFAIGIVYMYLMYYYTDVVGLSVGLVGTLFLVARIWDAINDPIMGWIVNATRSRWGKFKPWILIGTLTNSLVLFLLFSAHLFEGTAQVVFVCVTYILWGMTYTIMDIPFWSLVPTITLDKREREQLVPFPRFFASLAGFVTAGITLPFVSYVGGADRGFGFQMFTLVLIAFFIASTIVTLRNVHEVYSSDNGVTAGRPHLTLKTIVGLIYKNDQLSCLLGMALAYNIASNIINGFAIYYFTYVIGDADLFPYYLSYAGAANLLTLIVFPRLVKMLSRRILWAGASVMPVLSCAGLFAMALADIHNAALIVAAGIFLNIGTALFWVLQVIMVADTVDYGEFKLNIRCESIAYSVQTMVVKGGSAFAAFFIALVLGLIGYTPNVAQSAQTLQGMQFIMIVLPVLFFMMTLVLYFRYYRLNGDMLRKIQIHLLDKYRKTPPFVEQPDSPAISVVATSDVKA
# T2 sequence (P07550 whole entry): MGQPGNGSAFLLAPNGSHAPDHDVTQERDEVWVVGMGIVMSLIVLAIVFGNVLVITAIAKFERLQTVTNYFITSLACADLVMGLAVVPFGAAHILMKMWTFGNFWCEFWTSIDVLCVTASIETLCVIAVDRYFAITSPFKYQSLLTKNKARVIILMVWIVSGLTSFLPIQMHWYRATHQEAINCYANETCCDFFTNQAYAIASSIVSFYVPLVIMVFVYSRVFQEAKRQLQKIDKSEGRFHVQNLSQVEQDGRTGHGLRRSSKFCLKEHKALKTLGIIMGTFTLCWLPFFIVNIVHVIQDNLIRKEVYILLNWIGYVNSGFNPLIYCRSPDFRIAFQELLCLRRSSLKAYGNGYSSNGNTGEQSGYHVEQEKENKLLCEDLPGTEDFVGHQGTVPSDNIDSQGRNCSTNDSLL
Compound,CMC [1] [mM],CMC ([1]; DPH fluorescence) [mM],CMC (wt %) ([1]; DPH fluorescence),"Rh (nm), hydrodynamic radius of micelles [2] [nm]",LeuT stabilization as concentration of compound increased [3],MelB protein extraction/solubilization efficiency ([4]; 0° C.),MelB protein extraction efficiency and solubility ([4]; 45° C.),MelB protein extraction ([4]; 65° C.),MelB protein extraction efficiency and solubility ([4]; 55° C.),"maintaining the ligand binding characteristic of the receptor compared to DDM ([5]; 0 hour, CMC+0.2 wt %, [3H]-DHA)","ability to maintain the ligand binding of the receptor over time compared to DDM ([5]; 2 days at room temperature, early stage (0 to 12 h))",size of receptor-detergent complex [6]
"CCCCCCCCCCCCO[C@@H]1O[C@H](CO)[C@@H](O[C@H]2O[C@H](CO)[C@@H](O)[C@H](O)[C@H]2O)[C@H](O)[C@H]1O [DDM, n-dodecyl-β-D-maltopyranoside, reference compound]",0.17,0.17,0.0087,3.4 ± 0.0,constant structural collapse of the solubilized transporter,high MelB protein extraction efficiency,high MelB protein extraction efficiency,hardly extracted,,,,
CCCCCCCCCC[C@H]1c2cc(c(OCCO[C@@H]3OC(CO)[C@@H](O)[C@H](O)C3O)cc2OCCO[C@@H]2OC(CO)[C@@H](O)[C@H](O)C2O)[C@H](CCCCCCCCCC)c2cc(c(OCCO[C@@H]3OC(CO)[C@@H](O)[C@H](O)C3O)cc2OCCO[C@@H]2OC(CO)[C@@H](O)[C@H](O)C2O)[C@@H](CCCCCCCCCC)c2cc(c(OCCO[C@@H]3OC(CO)[C@@H](O)[C@H](O)C3O)cc2OCCO[C@@H]2OC(CO)[C@@H](O)[C@H](O)C2O)[C@@H](CCCCCCCCCC)c2cc1c(OCCO[C@@H]1OC(CO)[C@@H](O)[C@H](O)C1O)cc2OCCO[C@@H]1OC(CO)[C@@H](O)[C@H](O)C1O (some centres unmarked) [RGA-C11],,,~0.0081,6.8 ± 0.2,,,,,maintained MelB solubility better than DDM; also recorded: higher protein extraction efficiency than DDM,superior to DDM,superior ability to maintain the ligand binding of the receptor compared to DDM,significantly smaller than that formed of DDM
